In patent US20230271954A1 (Gossamer Bio Services, Inc., priority 2020, published 2023):

Tests used:
[1] = molecular target: T1, DGKζ (Homo sapiens, UniProt Q13574); assay: DGKζ biochemical assay (ADP-Glo); settings: read-out: DGK ζ IC50
T1 construct: purchased Carna 12-110

[2] = molecular target: DGKα (Homo sapiens, UniProt P23743); assay: DGKα biochemical assay (ADP-Glo); settings: read-out: DGK α IC50
Outline: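 ADP-Glo kinase assay using OAG/PS (1:2) lipid substrate, sonicated, in HEPES pH 7.0 buffer with MgCl2, CaCl2, DTT, BSA, Triton X-100. Enzyme preincubated with compound 30 min at RT; substrate with ATP (DGKα: 400 μM) added, 45 min RT. Luminescence read; % inhibition vs DMSO and no-enzyme controls.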

T1 sequence (Q13574 1-929 isoform Q13574-4): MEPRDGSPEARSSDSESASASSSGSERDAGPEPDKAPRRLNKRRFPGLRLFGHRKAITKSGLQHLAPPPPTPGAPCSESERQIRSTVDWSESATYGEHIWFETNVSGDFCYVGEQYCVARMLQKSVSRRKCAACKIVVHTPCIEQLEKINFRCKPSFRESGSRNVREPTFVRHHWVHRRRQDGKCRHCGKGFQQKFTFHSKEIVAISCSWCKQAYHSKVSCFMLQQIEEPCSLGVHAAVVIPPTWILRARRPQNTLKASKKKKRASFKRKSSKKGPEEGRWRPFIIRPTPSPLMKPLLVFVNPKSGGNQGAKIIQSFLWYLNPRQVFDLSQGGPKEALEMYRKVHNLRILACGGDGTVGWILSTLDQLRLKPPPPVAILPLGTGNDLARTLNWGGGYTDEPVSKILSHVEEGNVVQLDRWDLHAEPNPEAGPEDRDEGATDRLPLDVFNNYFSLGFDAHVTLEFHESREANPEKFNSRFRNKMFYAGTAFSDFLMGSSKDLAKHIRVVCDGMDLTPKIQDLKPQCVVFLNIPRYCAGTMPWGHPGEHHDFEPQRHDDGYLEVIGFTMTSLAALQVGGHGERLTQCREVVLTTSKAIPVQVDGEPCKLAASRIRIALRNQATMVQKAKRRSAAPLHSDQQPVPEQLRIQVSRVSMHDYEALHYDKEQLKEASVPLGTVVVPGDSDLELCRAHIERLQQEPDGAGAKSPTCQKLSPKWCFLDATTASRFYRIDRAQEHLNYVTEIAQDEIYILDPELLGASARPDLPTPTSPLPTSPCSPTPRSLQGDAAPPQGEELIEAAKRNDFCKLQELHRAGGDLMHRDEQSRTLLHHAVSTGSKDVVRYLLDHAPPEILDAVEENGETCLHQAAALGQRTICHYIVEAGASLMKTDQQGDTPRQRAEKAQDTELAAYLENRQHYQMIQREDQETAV
Chain of DGKα (P23743 whole entry): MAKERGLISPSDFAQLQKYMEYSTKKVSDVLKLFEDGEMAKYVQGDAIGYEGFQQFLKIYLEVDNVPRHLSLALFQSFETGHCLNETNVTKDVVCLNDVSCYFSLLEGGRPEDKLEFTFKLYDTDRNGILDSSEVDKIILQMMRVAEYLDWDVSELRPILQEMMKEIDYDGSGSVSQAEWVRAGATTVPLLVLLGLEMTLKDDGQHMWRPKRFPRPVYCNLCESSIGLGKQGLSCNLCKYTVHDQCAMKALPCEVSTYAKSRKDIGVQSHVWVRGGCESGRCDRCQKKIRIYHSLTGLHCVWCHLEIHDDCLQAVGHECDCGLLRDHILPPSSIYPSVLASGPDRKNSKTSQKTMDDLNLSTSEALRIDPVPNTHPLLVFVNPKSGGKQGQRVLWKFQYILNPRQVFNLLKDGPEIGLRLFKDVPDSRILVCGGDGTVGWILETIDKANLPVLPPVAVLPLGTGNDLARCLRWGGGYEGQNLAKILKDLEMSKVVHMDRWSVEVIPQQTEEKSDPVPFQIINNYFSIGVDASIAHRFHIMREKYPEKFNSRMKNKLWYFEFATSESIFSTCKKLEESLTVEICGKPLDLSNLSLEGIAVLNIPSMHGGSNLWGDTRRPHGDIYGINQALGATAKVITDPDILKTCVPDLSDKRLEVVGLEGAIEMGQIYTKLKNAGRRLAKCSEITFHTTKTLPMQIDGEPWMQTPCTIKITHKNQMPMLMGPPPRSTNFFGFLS

Row | IC50 [1] | IC50 [2] | Compound
1 | ≥ 1000 nM | 10 to 100 nM | COc1cc(F)ccc1N(C)[C@H]1CC[C@H](N(C)c2c(C#N)c(=O)n(C)c3ccc(Cl)nc23)CC1 [Example 40, trans-6-chloro-4-((4-((4-fluoro-2-methoxyphenyl) (methyl)amino)cyclohexyl)(methyl)amino)-1-methyl-2-oxo-1,2-dihydro-1,5-naphthyridine-3-carbonitrile]
2 | ≥ 1000 nM | ≥ 1000 nM | CC(C)CN(c1ccc(F)cc1)[C@H]1CC[C@H](N(C)c2cc(=O)n(C)c3ccc(C#N)nc23)CC1 [Example 41, trans-8-((-4-((4-fluorophenyl)(isobutyl)amino)cyclohexyl)(methyl)amino)-5-methyl-6-oxo-5,6-dihydro-1,5-naphthyridine-2-carbonitrile]
3 | 100 to 1000 nM | < 10 nM | Cn1c(=O)c(C#N)c(N(C)[C@H]2CC[C@@H](N(CC3CCC3)c3ccc(F)cc3)CC2)c2nc(C#N)ccc21 [Example 42, cis-8-((-4-((cyclobutylmethyl)(4-fluorophenyl)amino)cyclohexyl)(methyl)amino)-5-methyl-6-oxo-5,6-dihydro-1,5-naphthyridine-2,7-dicarbonitrile]
4 | 100 to 1000 nM | < 10 nM | Cn1c(=O)cc(N(C)[C@H]2CC[C@@H](N(CC3CCC3)c3ccc(F)cc3)CC2)c2nc(C#N)ccc21 [Example 43, cis-8-((-4-((cyclobutylmethyl)(4-fluorophenyl)amino)cyclohexyl)(methyl)amino)-5-methyl-6-oxo-5,6-dihydro-1,5-naphthyridine-2-carbonitrile]
5 | ≥ 1000 nM | 100 to 1000 nM | Cn1c(=O)cc(N(C)[C@H]2CC[C@H](N(CC3CCC3)c3ccc(F)cc3)CC2)c2nc(C#N)ccc21 [Example 44, trans-8-((-4-((cyclobutylmethyl)(4-fluorophenyl)amino)cyclohexyl)(methyl)amino)-5-methyl-6-oxo-5,6-dihydro-1,5-naphthyridine-2-carbonitrile]
6 | 100 to 1000 nM | 10 to 100 nM | COc1cc(F)ccc1N(C)[C@H]1CC[C@@H](N(C)c2c(C#N)c(=O)n(C)c3ccc(Cl)nc23)CC1 [Example 45, cis-6-chloro-4-((4-((4-fluoro-2-methoxyphenyl) (methyl)amino)cyclohexyl)(methyl)amino)-1-methyl-2-oxo-1,2-dihydro-1,5-naphthyridine-3-carbonitrile]
7 | 10 to 100 nM | 100 to 1000 nM | COc1cc(F)ccc1N(C)[C@H]1CC[C@H](N(C)c2c(C#N)c(=O)n(C)c3ccc(C#N)nc23)CC1 [Example 46, trans-8-((4-((4-fluoro-2-methoxyphenyl)(methyl)amino)cyclohexyl)(methyl)amino)-5-methyl-6-oxo-5,6-dihydro-1,5-naphthyridine-2,7-dicarbonitrile]
8 | ≥ 1000 nM | 10 to 100 nM | CC(C)CN(c1ccc(F)cc1)[C@H]1CC[C@@H](N(C)c2cc(=O)n(C)c3ccc(C#N)nc23)CC1 [Example 47, cis-8-((-4-((4-fluorophenyl)(isobutyl)amino)cyclohexyl)(methyl)amino)-5-methyl-6-oxo-5,6-dihydro-1,5-naphthyridine-2-carbonitrile]
9 | ≥ 1000 nM | 100 to 1000 nM | CC(C)CN(c1ccc(F)cc1)[C@H]1CC[C@@H](N(C)c2c(C#N)c(=O)n(C)c3ccc(Cl)nc23)CC1 [Example 48, cis-6-chloro-4-((-4-((4-fluorophenyl)(isobutyl)amino)cyclohexyl)(methyl)amino)-1-methyl-2-oxo-1,2-dihydro-1,5-naphthyridine-3-carbonitrile]
10 | 100 to 1000 nM | < 10 nM | Cn1c(=O)cc(N(C)[C@H]2CC[C@@H](N(c3ccc(F)cc3)C3CC3)CC2)c2nc(C#N)ccc21 [Example 49, cis-8-((4-(cyclopropyl(4-fluorophenyl)amino)cyclohexyl)(methyl)amino)-5-methyl-6-oxo-5,6-dihydro-1,5-naphthyridine-2-carbonitrile]
11 | 100 to 1000 nM | < 10 nM | Cn1c(=O)c(C#N)c(N(C)[C@H]2CC[C@@H](N(c3ccc(F)cc3)C3CC3)CC2)c2nc(C#N)ccc21 [Example 50, cis-8-((4-(cyclopropyl(4-fluorophenyl)amino)cyclohexyl)(methyl)amino)-5-methyl-6-oxo-5,6-dihydro-1,5-naphthyridine-2,7-dicarbonitrile]
12 | 100 to 1000 nM | < 10 nM | Cn1c(=O)c(C#N)c(N(C)[C@H]2CC[C@@H](N(c3ccc(F)cc3)C3CC3)CC2)c2nc(Cl)ccc21 [Example 51, cis-6-chloro-4-((4-(cyclopropyl(4-fluorophenyl)amino)cyclohexyl)(methyl)amino)-1-methyl-2-oxo-1,2-dihydro-1,5-naphthyridine-3-carbonitrile]
13 | 10 to 100 nM | < 10 nM | CC(C)CN(c1ccc(F)cc1)[C@H]1CC[C@@H](N(C)c2c(C#N)c(=O)n(C)c3ccc(C#N)nc23)CC1 [Example 52, cis-8-((-4-((4-fluorophenyl)(isobutyl)amino)cyclohexyl)(methyl)amino)-5-methyl-6-oxo-5,6-dihydro-1,5-naphthyridine-2,7-dicarbonitrile]
14 | 100 to 1000 nM | 10 to 100 nM | Cn1c(=O)c(C#N)c(N(C)[C@H]2CC[C@@H](N(CC3CCOCC3)c3ccc(F)cc3)CC2)c2nc(C#N)ccc21 [Example 53, cis-8-((-4-((4-fluorophenyl)((tetrahydro-2H-pyran-4-yl)methyl)amino)cyclohexyl)(methyl)amino)-5-methyl-6-oxo-5,6-dihydro-1,5-naphthyridine-2,7-dicarbonitrile]
15 | 100 to 1000 nM | 100 to 1000 nM | Cn1c(=O)c(C#N)c(N(C)[C@H]2CC[C@H](N(CC3CC3)c3ccc(F)cc3)CC2)c2nc(C#N)ccc21 [Example 54, trans-8-((4-((cyclopropylmethyl)(4-fluorophenyl)amino)cyclohexyl)(methyl)amino)-5-methyl-6-oxo-5,6-dihydro-1,5-naphthyridine-2,7-dicarbonitrile]
16 | 100 to 1000 nM | 100 to 1000 nM | Cn1c(=O)c(C#N)c(N(C)[C@H]2CC[C@H](N(CC3CCOCC3)c3ccc(F)cc3)CC2)c2nc(C#N)ccc21 [Example 59, trans-8-((-4-((4-fluorophenyl)((tetrahydro-2H-pyran-4-yl)methyl)amino)cyclohexyl)(methyl)amino)-5-methyl-6-oxo-5,6-dihydro-1,5-naphthyridine-2,7-dicarbonitrile]
17 | 10 to 100 nM | 100 to 1000 nM | Cn1c(=O)c(C#N)c(N(C)[C@H]2CC[C@@H](N(CC3CC3)c3ccc(F)c(F)c3)CC2)c2nc(C#N)ccc21 [Example 60, cis-8-((4-((cyclopropylmethyl)(3,4-difluorophenyl)amino)cyclohexyl)(methyl)amino)-5-methyl-6-oxo-5,6-dihydro-1,5-naphthyridine-2,7-dicarbonitrile]
18 | 10 to 100 nM | 100 to 1000 nM | Cn1c(=O)c(C#N)c(N(C)[C@H]2CC[C@@H](N(CC3CC3)c3ccc4c(c3)OCO4)CC2)c2nc(C#N)ccc21 [Example 61, cis-8-((4-(benzo[d][1,3]dioxol-5-yl(cyclopropylmethyl)amino)cyclohexyl)(methyl)amino)-5-methyl-6-oxo-5,6-dihydro-1,5-naphthyridine-2,7-dicarbonitrile]
19 | 10 to 100 nM | 10 to 100 nM | COc1cc(F)ccc1N(C)[C@H]1CC[C@@H](N(C)c2c(C#N)c(=O)n(C)c3ccc(C#N)nc23)CC1 [Example 64]
20 | 10 to 100 nM | 10 to 100 nM | COc1cc(N(C2CC2)[C@H]2CC[C@@H](N(C)c3c(C#N)c(=O)n(C)c4ccc(C#N)nc34)CC2)ccc1F [Example 65]
21 | 100 to 1000 nM | 10 to 100 nM | Cn1c(=O)c(C#N)c(N(C)[C@H]2CC[C@@H](N(C[C@H]3CCOC3)c3ccc(F)cc3)CC2)c2nc(C#N)ccc21 [Example 66]
22 | 100 to 1000 nM | 10 to 100 nM | Cn1c(=O)c(C#N)c(N(C)[C@H]2CC[C@@H](N(C[C@@H]3CCOC3)c3ccc(F)cc3)CC2)c2nc(C#N)ccc21 [Example 67]
23 | 10 to 100 nM | < 10 nM | Cn1c(=O)c(C#N)c(N(C)[C@H]2CC[C@@H](N(C[C@H]3CCCOC3)c3ccc(F)cc3)CC2)c2nc(C#N)ccc21 [Example 68]
24 | 10 to 100 nM | 10 to 100 nM | Cn1c(=O)c(C#N)c(N(C)[C@H]2CC[C@@H](N(C[C@@H]3CCCOC3)c3ccc(F)cc3)CC2)c2nc(C#N)ccc21 [Example 69]
25 | 100 to 1000 nM | ≥ 1000 nM | Cc1ccccc1N(CC1CC1)[C@H]1CC[C@H](N(C)c2cc(=O)n(C)c3ccc(C#N)nc23)CC1 [Example 70, trans-8-((4-((cyclopropylmethyl)(o-tolyl)amino)cyclohexyl)(methyl)amino)-5-methyl-6-oxo-5,6-dihydro-1,5-naphthyridine-2-carbonitrile]
26 | 10 to 100 nM | ≥ 1000 nM | Cc1ccccc1N(CC1CC1)[C@H]1CC[C@H](N(C)c2c(C#N)c(=O)n(C)c3ccc(C#N)nc23)CC1 [Example 71, trans-8-((4-((cyclopropylmethyl)(o-tolyl)amino)cyclohexyl)(methyl)amino)-5-methyl-6-oxo-5,6-dihydro-1,5-naphthyridine-2,7-dicarbonitrile]
27 | 100 to 1000 nM | ≥ 1000 nM | Cc1cc(F)ccc1N(CC1CC1)[C@H]1CC[C@H](N(C)c2cc(=O)n(C)c3ccc(C#N)nc23)CC1 [Example 72, trans-8-((4-((cyclopropylmethyl)(4-fluoro-2-methylphenyl)amino)cyclohexyl)(methyl)amino)-5-methyl-6-oxo-5,6-dihydro-1,5-naphthyridine-2-carbonitrile]
28 | 10 to 100 nM | 10 to 100 nM | Cc1cc(F)ccc1N(CC1CC1)[C@H]1CC[C@H](N(C)c2c(C#N)c(=O)n(C)c3ccc(C#N)nc23)CC1 [Example 73, trans-8-((4-((cyclopropylmethyl)(4-fluoro-2-methylphenyl)amino)cyclohexyl)(methyl)amino)-5-methyl-6-oxo-5,6-dihydro-1,5-naphthyridine-2,7-dicarbonitrile]
